According to ChEMBL document CHEMBL4507295 (2021):

Columns and labels:
Conditions in all cases: Compound concentration 1000.0 nM
[1] = target: Myosin-IIIa (Homo sapiens) (UniProt Q8NEV4)
[2] = target: Ephrin type-A receptor 2 (Homo sapiens) (UniProt P29317)
[3] = target: Aurora kinase C (Homo sapiens) (UniProt Q9UQB9)
[4] = target: Phosphatidylinositol 4-kinase beta (Homo sapiens) (UniProt Q9UBF8)
[5] = target: Serine/threonine-protein kinase SBK1 (Homo sapiens) (UniProt Q52WX2)
[6] = target: Tyrosine-protein kinase receptor Tie-1 (Homo sapiens) (UniProt P35590)
[7] = target: Serine/threonine-protein kinase TNNI3K (Homo sapiens) (UniProt Q59H18)
[8] = tested on: Epidermal growth factor receptor (Homo sapiens), P00533 [UNDEFINED MUTATION]
Chain of Epidermal growth factor receptor (Homo sapiens), P00533 [UNDEFINED MUTATION] (P00533 whole entry, looked up, change not shown): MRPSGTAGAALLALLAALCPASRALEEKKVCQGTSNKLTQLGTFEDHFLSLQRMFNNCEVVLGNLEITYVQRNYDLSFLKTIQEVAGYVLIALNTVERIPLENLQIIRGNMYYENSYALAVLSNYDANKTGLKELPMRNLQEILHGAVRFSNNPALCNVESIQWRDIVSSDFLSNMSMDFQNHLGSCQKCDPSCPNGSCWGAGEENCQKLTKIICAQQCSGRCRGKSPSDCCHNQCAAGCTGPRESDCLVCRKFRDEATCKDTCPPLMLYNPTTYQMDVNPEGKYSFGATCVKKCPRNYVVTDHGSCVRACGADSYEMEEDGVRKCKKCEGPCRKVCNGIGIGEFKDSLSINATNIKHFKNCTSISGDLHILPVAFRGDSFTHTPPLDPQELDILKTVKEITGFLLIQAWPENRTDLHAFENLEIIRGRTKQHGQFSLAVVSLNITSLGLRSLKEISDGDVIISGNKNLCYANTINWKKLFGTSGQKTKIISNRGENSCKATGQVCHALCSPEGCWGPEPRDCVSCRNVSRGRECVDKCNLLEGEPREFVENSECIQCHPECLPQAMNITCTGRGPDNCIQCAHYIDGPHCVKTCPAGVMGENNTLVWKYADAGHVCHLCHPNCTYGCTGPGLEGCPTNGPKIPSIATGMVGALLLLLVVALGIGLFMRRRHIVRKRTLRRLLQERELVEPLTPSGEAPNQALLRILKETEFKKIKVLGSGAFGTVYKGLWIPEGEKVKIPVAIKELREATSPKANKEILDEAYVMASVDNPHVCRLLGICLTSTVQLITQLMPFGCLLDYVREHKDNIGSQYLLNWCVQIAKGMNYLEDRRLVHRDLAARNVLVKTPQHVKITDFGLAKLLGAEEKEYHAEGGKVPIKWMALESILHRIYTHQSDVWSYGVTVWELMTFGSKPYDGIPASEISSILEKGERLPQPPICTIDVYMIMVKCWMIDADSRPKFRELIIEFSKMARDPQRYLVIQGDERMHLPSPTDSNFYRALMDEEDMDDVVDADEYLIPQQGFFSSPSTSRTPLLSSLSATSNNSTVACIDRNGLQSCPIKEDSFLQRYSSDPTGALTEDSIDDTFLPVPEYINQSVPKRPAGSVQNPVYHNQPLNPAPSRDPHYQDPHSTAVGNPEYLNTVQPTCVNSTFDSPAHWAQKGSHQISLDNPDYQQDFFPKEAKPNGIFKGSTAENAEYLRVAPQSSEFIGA

[9] = target: Tyrosine-protein kinase Fer (Homo sapiens) (UniProt P16591)
[10] = target: Phosphatidylinositol 4,5-bisphosphate 3-kinase catalytic subunit gamma isoform (Homo sapiens) (UniProt P48736)
[11] = target: Calcium/calmodulin-dependent protein kinase type 1D (Homo sapiens) (UniProt Q8IU85)
Chain of Calcium/calmodulin-dependent protein kinase type 1D (Homo sapiens) (Q8IU85 whole entry, looked up): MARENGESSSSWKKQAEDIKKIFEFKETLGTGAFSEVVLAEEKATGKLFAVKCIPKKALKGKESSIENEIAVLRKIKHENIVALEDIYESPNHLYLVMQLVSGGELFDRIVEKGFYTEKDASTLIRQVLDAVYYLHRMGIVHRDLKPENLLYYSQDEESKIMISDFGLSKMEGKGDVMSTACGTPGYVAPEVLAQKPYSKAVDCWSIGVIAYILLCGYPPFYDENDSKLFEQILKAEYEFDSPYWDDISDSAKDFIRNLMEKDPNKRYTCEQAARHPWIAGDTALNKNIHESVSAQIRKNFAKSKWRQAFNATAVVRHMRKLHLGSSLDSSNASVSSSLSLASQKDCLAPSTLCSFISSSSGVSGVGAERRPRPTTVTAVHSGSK

[12] = target: Serine/threonine-protein kinase PAK 1 (Homo sapiens) (UniProt Q13153)
[13] = target: Rho-associated protein kinase 2 (Homo sapiens) (UniProt O75116)
[14] = target: Mitogen-activated protein kinase kinase kinase 11 (Homo sapiens) (UniProt Q16584)
[15] = target: LIM domain kinase 2 (Homo sapiens) (UniProt P53671)
[16] = target: Cyclin-dependent kinase 11B (Homo sapiens) (UniProt P21127)
[17] = tested on: Phosphatidylinositol 4,5-bisphosphate 3-kinase catalytic subunit alpha isoform (Homo sapiens), P42336 [E542K]
[18] = tested on: Phosphatidylinositol 4,5-bisphosphate 3-kinase catalytic subunit alpha isoform (Homo sapiens), P42336 [H1047L]
Chain of Phosphatidylinositol 4,5-bisphosphate 3-kinase catalytic subunit alpha isoform (Homo sapiens), P42336 [H1047L] (P42336 whole entry H1047L, canonical isoform): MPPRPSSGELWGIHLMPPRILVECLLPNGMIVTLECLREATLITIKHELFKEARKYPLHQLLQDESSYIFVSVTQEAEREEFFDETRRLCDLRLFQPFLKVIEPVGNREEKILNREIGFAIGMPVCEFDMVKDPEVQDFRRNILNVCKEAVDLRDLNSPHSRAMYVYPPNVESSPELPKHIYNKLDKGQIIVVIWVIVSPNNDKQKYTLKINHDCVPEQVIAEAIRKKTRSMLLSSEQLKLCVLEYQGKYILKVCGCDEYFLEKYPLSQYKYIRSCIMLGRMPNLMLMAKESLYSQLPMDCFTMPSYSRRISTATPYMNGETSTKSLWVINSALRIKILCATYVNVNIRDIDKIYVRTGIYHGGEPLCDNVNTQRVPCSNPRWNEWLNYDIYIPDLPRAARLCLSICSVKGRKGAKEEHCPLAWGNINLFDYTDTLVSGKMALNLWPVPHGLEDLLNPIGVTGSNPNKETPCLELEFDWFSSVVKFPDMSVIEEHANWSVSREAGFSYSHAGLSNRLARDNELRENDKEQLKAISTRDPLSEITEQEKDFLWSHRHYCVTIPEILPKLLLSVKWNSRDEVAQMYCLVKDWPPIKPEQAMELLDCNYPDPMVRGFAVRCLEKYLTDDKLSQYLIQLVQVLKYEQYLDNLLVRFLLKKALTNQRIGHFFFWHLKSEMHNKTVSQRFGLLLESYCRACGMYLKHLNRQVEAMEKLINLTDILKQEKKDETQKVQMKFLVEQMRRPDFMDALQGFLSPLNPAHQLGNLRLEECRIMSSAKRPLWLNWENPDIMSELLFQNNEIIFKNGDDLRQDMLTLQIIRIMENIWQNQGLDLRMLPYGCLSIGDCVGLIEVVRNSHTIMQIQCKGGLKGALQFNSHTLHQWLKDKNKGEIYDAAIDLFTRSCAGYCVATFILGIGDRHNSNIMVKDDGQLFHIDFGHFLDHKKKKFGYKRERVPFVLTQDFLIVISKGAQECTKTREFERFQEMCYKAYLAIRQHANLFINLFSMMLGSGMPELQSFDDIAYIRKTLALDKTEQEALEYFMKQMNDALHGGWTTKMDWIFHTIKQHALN

[19] = tested on: Mast/stem cell growth factor receptor Kit (Homo sapiens), P10721 [L576P]
[20] = target: Cyclin-dependent kinase-like 2 (Homo sapiens) (UniProt Q92772)
[21] = tested on: Epidermal growth factor receptor (Homo sapiens), P00533 [UNDEFINED MUTATION]; remark: listed apart in the source
[22] = target: Serine/threonine-protein kinase PAK 5 (Homo sapiens) (UniProt Q9P286)
[23] = tested on: ALK tyrosine kinase receptor (Homo sapiens), Q9UM73 [L1196M]
[24] = target: Muscle, skeletal receptor tyrosine-protein kinase (Homo sapiens) (UniProt O15146)
Chain of Muscle, skeletal receptor tyrosine-protein kinase (Homo sapiens) (O15146 whole entry): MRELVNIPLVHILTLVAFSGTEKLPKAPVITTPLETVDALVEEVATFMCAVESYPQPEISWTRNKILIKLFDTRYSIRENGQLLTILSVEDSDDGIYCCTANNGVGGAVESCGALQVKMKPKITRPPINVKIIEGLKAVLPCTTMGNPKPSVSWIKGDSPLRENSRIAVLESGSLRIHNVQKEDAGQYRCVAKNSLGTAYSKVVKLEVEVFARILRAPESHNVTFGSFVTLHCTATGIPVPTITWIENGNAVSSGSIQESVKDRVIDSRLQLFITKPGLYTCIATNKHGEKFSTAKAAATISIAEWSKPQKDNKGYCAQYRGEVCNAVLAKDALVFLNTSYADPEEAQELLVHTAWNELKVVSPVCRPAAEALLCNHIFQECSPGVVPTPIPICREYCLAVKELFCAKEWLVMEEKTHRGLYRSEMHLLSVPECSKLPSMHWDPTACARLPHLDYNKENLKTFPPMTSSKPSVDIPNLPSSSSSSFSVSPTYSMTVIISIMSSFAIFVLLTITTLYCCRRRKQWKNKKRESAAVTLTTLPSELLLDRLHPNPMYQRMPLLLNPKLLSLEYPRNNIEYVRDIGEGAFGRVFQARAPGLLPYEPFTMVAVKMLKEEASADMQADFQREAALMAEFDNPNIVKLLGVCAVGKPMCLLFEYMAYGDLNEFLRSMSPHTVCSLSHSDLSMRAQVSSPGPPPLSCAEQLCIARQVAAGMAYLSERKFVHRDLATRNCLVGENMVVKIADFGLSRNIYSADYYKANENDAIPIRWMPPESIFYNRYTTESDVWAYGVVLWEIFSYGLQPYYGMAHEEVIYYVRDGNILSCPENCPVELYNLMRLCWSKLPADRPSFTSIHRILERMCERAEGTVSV

[25] = target: Myosin light chain kinase (Homo sapiens) (UniProt Q32MK0)
[26] = target: Ribosomal protein S6 kinase beta-1 (Homo sapiens) (UniProt P23443)
[27] = target: Bone morphogenetic protein receptor type-2 (Homo sapiens) (UniProt Q13873)
[28] = target: Mitogen-activated protein kinase kinase kinase kinase 4 (Homo sapiens) (UniProt O95819)
[29] = target: Dual specificity tyrosine-phosphorylation-regulated kinase 2 (Homo sapiens) (UniProt Q92630)
Chain of Dual specificity tyrosine-phosphorylation-regulated kinase 2 (Homo sapiens) (Q92630 whole entry): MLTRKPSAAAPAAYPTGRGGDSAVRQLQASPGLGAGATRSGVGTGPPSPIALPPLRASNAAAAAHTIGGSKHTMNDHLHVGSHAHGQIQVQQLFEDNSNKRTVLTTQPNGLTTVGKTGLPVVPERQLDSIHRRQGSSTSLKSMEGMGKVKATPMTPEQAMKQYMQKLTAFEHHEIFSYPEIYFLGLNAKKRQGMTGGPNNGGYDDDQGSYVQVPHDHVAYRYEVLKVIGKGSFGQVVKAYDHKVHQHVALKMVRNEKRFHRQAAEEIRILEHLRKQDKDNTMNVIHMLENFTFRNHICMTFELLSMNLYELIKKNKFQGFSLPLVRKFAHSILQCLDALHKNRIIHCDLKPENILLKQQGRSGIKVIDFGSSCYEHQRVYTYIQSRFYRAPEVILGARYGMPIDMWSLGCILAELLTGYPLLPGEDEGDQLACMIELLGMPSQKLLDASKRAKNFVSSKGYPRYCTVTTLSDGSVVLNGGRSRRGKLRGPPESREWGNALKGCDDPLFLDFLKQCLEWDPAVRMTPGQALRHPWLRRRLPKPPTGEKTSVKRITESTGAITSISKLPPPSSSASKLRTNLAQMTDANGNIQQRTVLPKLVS

[30] = target: MAP kinase-interacting serine/threonine-protein kinase 2 (Homo sapiens) (UniProt Q9HBH9)
[31] = target: Serine/threonine-protein kinase PLK2 (Homo sapiens) (UniProt Q9NYY3)
[32] = target: Ephrin type-B receptor 3 (Homo sapiens) (UniProt P54753)
[33] = target: Calcium/calmodulin-dependent protein kinase type 1B (Homo sapiens) (UniProt Q6P2M8)
[34] = target: RAC-gamma serine/threonine-protein kinase (Homo sapiens) (UniProt Q9Y243)
[35] = target: Dual specificity mitogen-activated protein kinase kinase 1 (Homo sapiens) (UniProt Q02750)
Chain of Dual specificity mitogen-activated protein kinase kinase 1 (Homo sapiens) (Q02750 whole entry, canonical isoform): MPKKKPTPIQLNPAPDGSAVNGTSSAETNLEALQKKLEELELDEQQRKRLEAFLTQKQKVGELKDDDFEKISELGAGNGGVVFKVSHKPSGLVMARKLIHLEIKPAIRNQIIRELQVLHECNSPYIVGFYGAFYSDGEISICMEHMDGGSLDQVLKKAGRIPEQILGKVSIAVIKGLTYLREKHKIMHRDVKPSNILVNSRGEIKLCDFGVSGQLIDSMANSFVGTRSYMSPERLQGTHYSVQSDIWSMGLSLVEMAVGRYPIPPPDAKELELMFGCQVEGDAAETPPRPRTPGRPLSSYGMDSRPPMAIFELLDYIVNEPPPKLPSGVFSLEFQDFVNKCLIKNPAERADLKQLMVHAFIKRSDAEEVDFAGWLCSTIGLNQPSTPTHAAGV

[36] = tested on: Phosphatidylinositol 4,5-bisphosphate 3-kinase catalytic subunit alpha isoform (Homo sapiens), P42336 [Q546K]
[37] = target: STE20/SPS1-related proline-alanine-rich protein kinase (Homo sapiens) (UniProt Q9UEW8)
[38] = target: Ribosomal protein S6 kinase alpha-6 (Homo sapiens) (UniProt Q9UK32)
[39] = target: Cyclin-dependent kinase 8 (Homo sapiens) (UniProt P49336)
[40] = target: Serine/threonine-protein kinase BRSK2 (Homo sapiens) (UniProt Q8IWQ3)
[41] = target: Cyclin-dependent kinase 16 (Homo sapiens) (UniProt Q00536)
Chain of Cyclin-dependent kinase 16 (Homo sapiens) (Q00536 whole entry): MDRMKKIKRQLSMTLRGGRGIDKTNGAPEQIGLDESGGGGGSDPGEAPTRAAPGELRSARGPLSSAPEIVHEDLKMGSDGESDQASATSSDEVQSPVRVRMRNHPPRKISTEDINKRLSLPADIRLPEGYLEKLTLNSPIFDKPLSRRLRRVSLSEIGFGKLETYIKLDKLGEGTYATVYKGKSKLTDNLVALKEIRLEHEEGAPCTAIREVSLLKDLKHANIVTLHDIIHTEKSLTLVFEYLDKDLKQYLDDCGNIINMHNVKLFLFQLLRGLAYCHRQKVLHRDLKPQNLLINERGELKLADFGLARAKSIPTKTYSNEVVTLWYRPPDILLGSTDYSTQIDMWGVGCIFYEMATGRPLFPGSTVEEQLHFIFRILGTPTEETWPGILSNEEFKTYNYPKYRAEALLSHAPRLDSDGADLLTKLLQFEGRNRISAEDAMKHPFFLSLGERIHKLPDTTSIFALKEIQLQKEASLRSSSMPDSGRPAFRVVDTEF

[42] = target: Ephrin type-A receptor 7 (Homo sapiens) (UniProt Q15375)
[43] = target: Phosphorylase b kinase regulatory subunit alpha, liver isoform (Homo sapiens) (UniProt P46019)
[44] = target: Casein kinase I isoform delta (Homo sapiens) (UniProt P48730)
[45] = target: Glycogen synthase kinase-3 alpha (Homo sapiens) (UniProt P49840)

N#CC1(c2ccccn2)CCN(Cc2cc(C(=O)N3CCCC3)c(=O)n3ccccc23)CC1
residual activity [1]: 80% | residual activity [2]: 86% | residual activity [3]: 88% | residual activity [4]: 100% | residual activity [5]: 89% | residual activity [6]: 98% | residual activity [7]: 89% | residual activity [8]: 77% | residual activity [9]: 89% | residual activity [10]: 75% | residual activity [11]: 100% | residual activity [12]: 100% | residual activity [13]: 72% | residual activity [14]: 89% | residual activity [15]: 82% | residual activity [16]: 80% | residual activity [17]: 90% | residual activity [18]: 100% | residual activity [19]: 100% | residual activity [20]: 93% | residual activity [21]: 67% | residual activity [22]: 93% | residual activity [23]: 100% | residual activity [24]: 90% | residual activity [25]: 76% | residual activity [26]: 34% | residual activity [27]: 92% | residual activity [28]: 87% | residual activity [29]: 100% | residual activity [30]: 96% | residual activity [31]: 100% | residual activity [32]: 90% | residual activity [33]: 90% | residual activity [34]: 74% | residual activity [35]: 100% | residual activity [36]: 94% | residual activity [37]: 75% | residual activity [38]: 89% | residual activity [39]: 100% | residual activity [40]: 77% | residual activity [41]: 100% | residual activity [42]: 100% | residual activity [43]: 85% | residual activity [44]: 74% | residual activity [45]: 72%

N#CC1(c2ccccn2)CCN(Cc2cc(C(=O)O)c(=O)n3ccccc23)CC1 [MSD-M1PAM]
residual activity [1]: 100% | residual activity [2]: 83% | residual activity [3]: 94% | residual activity [4]: 74% | residual activity [5]: 83% | residual activity [6]: 100% | residual activity [7]: 100% | residual activity [8]: 97% | residual activity [9]: 100% | residual activity [10]: 91% | residual activity [11]: 100% | residual activity [12]: 86% | residual activity [13]: 85% | residual activity [14]: 100% | residual activity [15]: 100% | residual activity [16]: 100% | residual activity [17]: 87% | residual activity [18]: 80% | residual activity [19]: 100% | residual activity [20]: 100% | residual activity [21]: 100% | residual activity [22]: 96% | residual activity [23]: 100% | residual activity [24]: 96% | residual activity [25]: 87% | residual activity [26]: 96% | residual activity [27]: 89% | residual activity [28]: 87% | residual activity [29]: 95% | residual activity [30]: 85% | residual activity [31]: 80% | residual activity [32]: 92% | residual activity [33]: 100% | residual activity [34]: 100% | residual activity [35]: 95% | residual activity [36]: 58% | residual activity [37]: 56% | residual activity [38]: 84% | residual activity [39]: 100% | residual activity [40]: 100% | residual activity [41]: 67% | residual activity [42]: 100% | residual activity [43]: 100% | residual activity [44]: 96% | residual activity [45]: 100%
